Data set [1] can be described thus: Cytotoxicity against human cystinotic Fibroblast at 50 uM for 72 hrs by Alamar blue assay. Type of data set: cell-based. On the technique in general: Alamar Blue is a resazurin reagent that responds to reducing activity.
The test system of data set [2] is Fibroblast. As to the kind of experiment: Decrease in intracellular cystine level in human cystinotic Fibroblast at 50 uM for 24 hrs by thiol assay. The class given is functional, cell-based.

Each structure is given as a SMILES string. Activity calls are given as the source filed them. The rule behind the calls is not given here.

Activity data for two compounds are collected here from ChEMBL document CHEMBL1759868, “Folate pro-drug of cystamine as an enhanced treatment for nephropathic cystinosis” (Bioorg Med Chem Lett, 2011).

For `NCCS` [CYSTEAMINE], the Activity result in data set [1] was “Non-toxic”. In the case of `Cl.NCCSSCCNC(=O)CC[C@H](NC(=O)c1ccc(NCc2cnc3nc(N)nc(O)c3n2)cc1)C(=O)NCCSSCCN`, the Activity entry in data set [1] was “Non-toxic”. For the same compound, the outcome in data set [2] was Active.
